Data reported in ChEMBL document CHEMBL4311969, “Polygala tenuifolia-Acori tatarinowii herbal pair as an inspiration for substituted cinnamic α-asaronol esters: Design, synthesis, anticonvulsant activity, and inhibition of lactate dehydrogenase study” (Eur J Med Chem, 2019).
Where “and” joins values, the source holds several entries; their conditions need not be identical. Equal values may be shown once. Calls of active or inactive are those of the source. No cut-off for these calls is given here.

Assays:
Mus musculus [1] = assay: Anticonvulsant activity in Kunming mouse assessed as reduction in ScPTZ-induced seizure at 300 mg/kg, ip administered 0.25 to 2 hrs before ScPTZ stimulation relative to control; type: functional; design: scale not given: the % may be the effect or the level left
[2] = Half life in Sprague-Dawley rat at 20 mg/kg, iv measured upto 480 mins by LC-MS/MS analysis; type: ADME, organism-based; conditions: in vivo
Mus musculus [3] = assay: Anticonvulsant activity in Kunming mouse assessed as MES-induced hind limb extension at 50 mg/kg, ip administered 0.5 and 2 hrs before MES stimulation relative to control; type: functional
[4] = Neurotoxicity against Kunming mouse assessed as time remained in rod at 100 mg/kg, ip administered 0.5 to 2 hrs by rotarod test; type: toxicity, organism-based; conditions: in vivo
Mus musculus [5] = assay: Anticonvulsant activity in Kunming mouse assessed as reduction in ScPTZ-induced clonic seizure at 100 mg/kg, ip administered 0.5 hrs before ScPTZ stimulation relative to control; type: functional; design: scale not given: the % may be the effect or the level left
Mus musculus [6] = assay: Anticonvulsant activity in Kunming mouse assessed as reduction in Sc3-MP-induced clonic seizure rate at 300 mg/kg, ip administered 0.5 hrs before Sc3-MP stimulation relative to control; type: functional; design: scale not given: the % may be the effect or the level left
[7] = Clearance in Sprague-Dawley rat at 20 mg/kg, po measured upto 480 mins by LC-MS/MS analysis; type: ADME, organism-based; conditions: in vivo
[8] = Cmax in Sprague-Dawley rat at 20 mg/kg, iv measured upto 480 mins by LC-MS/MS analysis; type: ADME, organism-based; design: dose 20 mg/kg, route intravenous; conditions: in vivo
[9] = Volume of distribution at steady state in Sprague-Dawley rat at 50 mg/kg, po measured upto 480 mins by LC-MS/MS analysis; type: ADME, organism-based; conditions: in vivo, 8 h
[10] = AUC in Sprague-Dawley rat at 20 mg/kg, iv measured upto 480 mins by LC-MS/MS analysis; type: ADME, organism-based; design: time < 8 hr, dose 20 mg/kg, route intravenous; conditions: in vivo
[11] = Oral bioavailability in Sprague-Dawley rat at 50 mg/kg measured upto 480 mins by LC-MS/MS analysis; type: ADME, organism-based; conditions: in vivo
Mus musculus [12] = assay: Anticonvulsant activity in Kunming mouse assessed as MES-induced hind limb extension at 100 mg/kg, ip administered 0. 5 to 4 hrs before MES stimulation relative to control; type: functional
[13] = AUC in Sprague-Dawley rat at 20 mg/kg, po measured upto 480 mins by LC-MS/MS analysis; type: ADME, organism-based; design: time < 8 hr, dose 20 mg/kg, route oral; conditions: in vivo
[14] = Volume of distribution at steady state in Sprague-Dawley rat at 100 mg/kg, po measured upto 480 mins by LC-MS/MS analysis; type: ADME, organism-based; conditions: in vivo, 8 h
[15] = Protective index, ratio of TD50 for neurotoxicity against ip dosed Kunming mouse assessed as time remained in rod measured at 0.5 hrs by rotarod test to ED50 for […] activity in ip dosed Kunming mouse assessed as reduction in formalin-induced paw licking administered 0.5 hrs before formalin stimulation; type: toxicity, organism-based; conditions: in vivo, read-out: PI
[16] = AUC in Sprague-Dawley rat at 100 mg/kg, po measured upto 480 mins by LC-MS/MS analysis; type: ADME, organism-based; design: dose 100 mg/kg, time < 8 hr, route oral; conditions: in vivo
[17] = Neurotoxicity against ip dosed Kunming mouse assessed as time remained in rod measured at 0.5 hrs by rotarod test; type: toxicity, organism-based; conditions: in vivo
Mus musculus [18] = assay: Anticonvulsant activity in Kunming mouse assessed as reduction in ScPTZ-induced tonic seizure rate at 300 mg/kg, ip administered 0.5 hrs before ScPTZ stimulation relative to control; type: functional; design: scale not given: the % may be the effect or the level left
Mus musculus [19] = assay: Anticonvulsant activity in Kunming mouse assessed as reduction in ScPTZ-induced clonic seizure at 300 mg/kg, ip administered 0.5 hrs before ScPTZ stimulation relative to control; type: functional; design: scale not given: the % may be the effect or the level left
[20] = Protective index, ratio of TD50 for neurotoxicity against ip dosed Kunming mouse assessed as time remained in rod measured at 0.5 hrs by rotarod test to ED50 for anticonvulsant activity in ip dosed Kunming mouse assessed as reduction in ScPTZ-induced seizure administered 0.5 hrs before ScPTZ stimulation; type: toxicity, organism-based; conditions: in vivo, read-out: PI
[21] = Tmax in Sprague-Dawley rat at 50 mg/kg, po measured upto 480 mins by LC-MS/MS analysis; type: ADME, organism-based; conditions: in vivo
Mus musculus [22] = assay: Anticonvulsant activity in Kunming mouse assessed as reduction in ScPTZ-induced seizure at 100 mg/kg, ip administered 0.25 and 1 hrs before ScPTZ stimulation relative to control; type: functional; design: scale not given: the % may be the effect or the level left
Mus musculus [23] = assay: […] activity in ip dosed Kunming mouse assessed as reduction in formalin-induced paw licking administered 0.5 hrs before formalin stimulation; type: functional
[24] = AUC in Sprague-Dawley rat at 50 mg/kg, po measured upto 480 mins by LC-MS/MS analysis; type: ADME, organism-based; design: time < 8 hr, dose 50 mg/kg, route oral; conditions: in vivo
[25] = Oral bioavailability in Sprague-Dawley rat at 20 mg/kg measured upto 480 mins by LC-MS/MS analysis; type: ADME, organism-based; conditions: in vivo
[26] = Clearance in Sprague-Dawley rat at 100 mg/kg, po measured upto 480 mins by LC-MS/MS analysis; type: ADME, organism-based; conditions: in vivo
Homo sapiens [27] = organism: Homo sapiens; assay: Inhibition of human LDH5 at 0.5 mM using sodium pyruvate as substrate measured for 60 sec for every 5 mins by LC/MS-MS analysis
Mus musculus [28] = assay: Anticonvulsant activity in ip dosed Kunming mouse assessed as reduction in ScPTZ-induced seizure administered 0.5 hrs before ScPTZ stimulation; type: functional
Mus musculus [29] = assay: Anticonvulsant activity in Kunming mouse assessed as reduction in Sc3-MP-induced tonic seizure rate at 300 mg/kg, ip administered 0.5 hrs before Sc3-MP stimulation relative to control; type: functional; design: scale not given: the % may be the effect or the level left
[30] = Oral bioavailability in Sprague-Dawley rat at 100 mg/kg measured upto 480 mins by LC-MS/MS analysis; type: ADME, organism-based; conditions: in vivo
Mus musculus [31] = assay: Anticonvulsant activity in ip dosed Kunming mouse assessed as MES-induced hind limb extension administered 0.5 hrs before MES stimulation; type: functional
[32] = Tmax in Sprague-Dawley rat at 20 mg/kg, po measured upto 480 mins by LC-MS/MS analysis; type: ADME, organism-based; conditions: in vivo
Homo sapiens [33] = organism: Homo sapiens; assay: Inhibition of human LDH1 at 0.5 mM using sodium pyruvate as substrate by UV-VIS spectrophotometry method relative to control
[34] = Volume of distribution at steady state in Sprague-Dawley rat at 20 mg/kg, po measured upto 480 mins by LC-MS/MS analysis; type: ADME, organism-based; conditions: in vivo, 8 h
Mus musculus [35] = assay: Anticonvulsant activity in Kunming mouse assessed as MES-induced hind limb extension at 100 mg/kg, ip administered 0. 5 to 2 hrs before MES stimulation; type: functional, organism-based
[36] = Volume of distribution at steady state in Sprague-Dawley rat at 20 mg/kg, iv measured upto 480 mins by LC-MS/MS analysis; type: ADME, organism-based; conditions: in vivo, read-out: Vdss
[37] = Cmax in Sprague-Dawley rat at 100 mg/kg, po measured upto 480 mins by LC-MS/MS analysis; type: ADME, organism-based; design: dose 100 mg/kg, route oral; conditions: in vivo
Mus musculus [38] = assay: Anticonvulsant activity in Kunming mouse assessed as reduction in Sc3-MP-induced seizure at 300 mg/kg, ip administered 0.5 hrs before Sc3-MP stimulation relative to control; type: functional; design: scale not given: the % may be the effect or the level left
Mus musculus [39] = assay: Anticonvulsant activity in Kunming mouse assessed as reduction in ScPTZ-induced tonic seizure rate at 100 mg/kg, ip administered 0.5 hrs before ScPTZ stimulation relative to control; type: functional; design: scale not given: the % may be the effect or the level left
[40] = Protective index, ratio of TD50 for neurotoxicity against ip dosed Kunming mouse assessed as time remained in rod measured at 0.5 hrs by rotarod test to ED50 for anticonvulsant activity in ip dosed Kunming mouse assessed as MES-induced hind limb extension administered 0.5 hrs; type: toxicity, organism-based; conditions: in vivo, read-out: PI

Compound | Activity (Mus musculus [1]) [%] | half-life [2] [min] | Activity (Mus musculus [3]) [%] | Activity [4] | Activity (Mus musculus [5]) [%] | Activity (Mus musculus [6]) [%] | CL/F [7] [mL/min/kg] | Cmax [8] [ng/mL] | Vdss [9] [L/kg] | AUC at 8 h [10] [ng·h/mL] | bioavailability [11] [%] | Activity (Mus musculus [12]) | AUC at 8 h [13] [ng·h/mL] | Vdss [14] [L/kg] | selectivity ratio at 0.5 h [15] | AUC at 8 h [16] [ng·h/mL] | TD50 at 0.5 h [17] | Activity (Mus musculus [18]) [%] | Activity (Mus musculus [19]) [%] | selectivity ratio at 0.5 h [20] | other results
COc1cc(OC)c(OC)cc1/C=C/COC(=O)/C=C/c1c(OC)cc(OC)c(OC)c1OC | 50 | 22.8 | 75 | Non-Toxic | 100 | 100 | 380 | 6480 | 10.17 | 3000 | 34.8 | 25 - 100% | 1300 | 11.26 | 21.6 | 5480 | 1970 µmol/kg and 936 mg/kg | 25 | 100 | 6.1 | Tmax [21]: 38.7 min; Activity (Mus musculus [22]): 75%; ED50 (Mus musculus [23]): 46.3 mg/kg and 97.6 µmol/kg; AUC at 8 h [24]: 2610 ng·h/mL; bioavailability [25]: 43.4%; CL/F [26]: 520 mL/min/kg; inhibition (Homo sapiens [27]): 27%; ED50 (Mus musculus [28]): 154 mg/kg and 326 µmol/kg; Activity (Mus musculus [29]): 50%; bioavailability [30]: 36.5%; ED50 (Mus musculus [31]): 71.4 µmol/kg and 33.9 mg/kg; Tmax [32]: 37.1 min; inhibition (Homo sapiens [33]): 21%; Vdss [34]: 9.86 L/kg; Activity (Mus musculus [35]): Active; Vd [36]: 2.14 L/kg; Cmax [37]: 3980 ng/mL; Activity (Mus musculus [38]): 50%; Activity (Mus musculus [39]): 25%; selectivity ratio at 0.5 h [40]: 27.7
COc1cc(OC)c(OC)cc1/C=C/COC(=O)/C=C/c1cc(OC)c(OC)c(OC)c1OC | 50 | 19.7 | 75 | Non-Toxic | 100 | 100 | 390 | 6220 | 9.26 | 2940 | 31.4 | 25 - 100% | 1210 | 9.98 | 23.7 | 5110 | > 2110 µmol/kg and > 1000 mg/kg | 0 | 100 | > 6.4 | Tmax [21]: 35.6 min; Activity (Mus musculus [22]): 75%; ED50 (Mus musculus [23]): 42.2 mg/kg and 89 µmol/kg; AUC at 8 h [24]: 2310 ng·h/mL; bioavailability [25]: 41.3%; CL/F [26]: 560 mL/min/kg; inhibition (Homo sapiens [27]): 15%; ED50 (Mus musculus [28]): 155 mg/kg and 327 µmol/kg; Activity (Mus musculus [29]): 50%; bioavailability [30]: 34.8%; ED50 (Mus musculus [31]): 65.1 µmol/kg and 30.9 mg/kg; Tmax [32]: 35.2 min; inhibition (Homo sapiens [33]): 18%; Vdss [34]: 8.94 L/kg; Activity (Mus musculus [35]): Active; Vd [36]: 1.98 L/kg; Cmax [37]: 3770 ng/mL; Activity (Mus musculus [38]): 50%; Activity (Mus musculus [39]): 75%; selectivity ratio at 0.5 h [40]: > 32.4
